# Tests used:
# [1] = tested on: spontaneously hypertensive rats (SHRs); assay: Antihypertensive action in spontaneously hypertensive rats (SHRs); type: in vivo, rat; conditions: SHR, oral
# Method: Method: Male SHR at ages ranging from 20 to 24 weeks were anesthetized with pentobarbital.sodium (50 mg/kg, i.p.) and, from the femoral artery of each animal, a polyethylene tube was inserted. The polyethylene tube was connected to a pressure transducer and blood pressure after oral administration of drugs was recorded continuously under non-anesthesia. The animals, after the operation, were allowed to freely access to drinking water and eating, until administration of the drugs. The compounds were all orally administered as a suspension in gum arabic (2 ml/kg).
# hamsters = assay: Cholesterol lowering effects in hamsters; type: in vivo, Syrian hamsters
# Method: Method: Syrian hamsters of 10 weeks old were stabilized with common feed for two weeks. The animals were grouped based on the total cholesterol in blood. The vehicle (water) or drug was orally administered in a volume of 2 ml/kg for two weeks. During the period of the administration, blood was collected from retinal vessels with passage of time and the total cholesterol and triglyceride in blood were determined. On the other hand, blood was collected from abdominal aorta on the second week after the consecutive administration of the test compounds to determine the total cholesterol, triglyceride and HDL (high density lipid)-cholesterol in blood. Cholesterol C-test, triglyceride G-test and HDL-cholesterol E test (all manufactured by Wako Pure Chemical Industries, Ltd.) were used for the determination of these parameters, respectively.
# Hs68 cells = assay: PDGF-induced proliferation in Hs68 cells (3H-thymidine uptake); type: cell-based, Human; conditions: Hs68, PDGF-BB 5 ng/ml, concentration 1 × 10^−6 M
# Method: Method: Human skin fibroblasts (Hs68, Institute for Fermentation, Osaka) were seeded in 48-well plates precoated with collagen type I (Falcon) (25000 cells/well), and cultured for one day. Then, the cells were cultured in Dulbecco's modified Eagle's medium (high glucose) containing 0.1% bovine serum albumin for 48 hours. Fifteen (15) minutes after the addition of the drug, the cells were stimulated with 5 ng/ml of PDGF-BB (Becton Dickinson Labware) containing 3H-thymidine (final concentration 0.4 mCi/ml) (Amersham). After 24 hours, the reaction was stopped with 7.5% trichloroacetic acid at 4° C. and the plate was allowed to stand at 4° C. for 30 minutes. The cells were washed with Ca^2+- and Mg^2-free phosphate-buffered saline (PBS), after then 0.1% sodium dodecyl sulfate (SDS)/0.4N NaOH was added and the plate was allowed to stand at 37° C. for 1 hour to lyze the cells. The whole content of each well was taken in a vial and neutralized with 1N HCl, and then toluene scintillator (Wako Pure Chemical Ind.) was added to each vial. After stirring, the amount of ^3H-thymidine incorporated in the cells was determined with a liquid scintillation counter. The cellular uptake of ^3H-thymidine was used as an indicator of cell proliferation. The effect of the drug on the PDGF-BB (5 ng/ml) uptake of ^3H-thymidine was expressed as % inhibition.
# 5/6 nephrectomized rats = assay: Antiproteinuric effect in 5/6 nephrectomized rats; type: in vivo, Sprague Dawley rats
# Method: Method: Male Sprague Dawley rats of five-week old (Japan Clea) were anesthetized with pentobarbital.sodium (50 mg/kg, i.p.), and the right kidney was excised by dorsal incision, and its two-thirds were cut. Two weeks later, the whole of left kidney was removed. In the Sham group, only the second operation was performed. In two weeks after the second operation, urine was collected for 24 hours under drinking water ad libitum. Urinary albumin and total protein were quantitatively determined by the use of A/G B-test (Wako). On the following day of collecting urine, the blood pressure was measured by the tail cuff method. Test animals showing more proteinuria than that of Sham group were selected. Based on the amount of the proteinuria and the blood pressure level, the animals were grouped so that, the average and distribution of urinary protein and blood pressure same in each group. The drug was suspended in gumarabic/water or dissolved in water, and orally administered once a day for 6-8 weeks in a volume of 2 ml/kg. The administration was consecutively performed, and, at 2, 4, 6 and 8th weeks of treatment, urine was collected and blood pressure was measured. The vehicle group was orally administered with only water at a dose of 2 ml/kg.
# PDGF-induced contraction = assay: Inhibitory effects on the contraction due to PDGF (isolated thoracic aorta strips); design: species or system stroke prone spontaneously hypertensive rats; conditions: 1.7 nM PDGF-AB, drug added 30 minutes before
# Method: Method: The thoracic aorta of stroke prone spontaneously hypertensive rats at ages ranging from 16 to 36 weeks were isolated, and strip (2 mm in width, 2 cm in length) were prepared from the aorta. Each strip was mounted in 10 ml of an organ bath, which was loaded at 2 g and allowed to stabilized for 2 to 3 hours. As the nutrient, a Krebs-Henseleit solution, bubbled with a mixture gas (95% O2, 5% CO2), was used. At the time when the contraction response against 60 mM KCl becomes constant, each strip was applied by 1.7 nM of PDGF-AB (Cosmobio Inc.) for contraction. Observation was continued until the contraction become maximum and stable (30 to 40 minutes after application of PDGF-AB). Then, the strips were washed, and, in about one hour later (after the tone of the vaso-contraction was recovered to the original level), 10 μl of the drug (DMSO solution) was added. Thirty minutes after drug, 1.7 nM of PDGF-AB was added again and subjected to observation until the contraction became maximum. The PDGF-AB-induced contraction was isometrically recorded on a polygraph (Nihon Denki San-ei). From the contractile response of the strips to PDGF-AB in the absence or presence of drugs, % inhibition of each drug was calculated. IC50 value for the inhibitory effects was calculated in accordance with the Filler's theorem using the least squares method.
# [2] = 3 mg/kg oral once a day, 0 weeks
# [3] = 3 mg/kg oral once a day, 2 weeks
# [4] = 3 mg/kg oral once a day, 4 weeks
# [5] = 3 mg/kg oral once a day, 6 weeks
# [6] = 3 mg/kg oral once a day, 8 weeks
# [7] = 10 mg/kg oral once a day, 0 weeks
# [8] = 10 mg/kg oral once a day, 2 weeks
# [9] = 10 mg/kg oral once a day, 4 weeks
# [10] = 10 mg/kg oral once a day, 6 weeks
# [11] = 10 mg/kg oral once a day, 8 weeks
compound,measurement,setting,value
"1,2-Dihydro-3-methyl-1-[3,3-dimethyl-5-(trifluoromethanesulfonamido)pentan-1-yl]-1,4,7b-triazacyclopent[cd]inden-2-one.hydrochloride [Example 40]",blood-pressure change,"[1]; 30 mg/kg, after 7 hrs.",−20 [after 7 hrs.] mmHg
"1,2-Dihydro-3-methyl-1-[4-(methoxycarbonylamino)butan-1-yl]-1,4,7b-triazacyclopento[cd]inden-2-one.hydrochloride [Example 37]",blood-pressure change,"[1]; 30 mg/kg, after 5 hrs.",−14 [after 5 hrs.] mmHg
"1,2-Dihydro-3-methyl-1-[4-[(2,2,2-trifluoro)ethanesulfonamido]butan-1-yl]-1,4,7b-triazacyclopent[cd]inden-2-one.hydrochloride [Example 38]",blood-pressure change,"[1]; 30 mg/kg, after 4 hrs.",−19 [after 4 hrs.] mmHg
"1,2-Dihydro-3-methyl-1-[6-(trifluoromethanesulfon-amido)hexan-1-yl)-1,4,7b-triazacyclopent[cd]inden-2-one.hydrochloride [Example 28]","TC (total cholesterol in blood), % of Vehicle",hamsters; 30 mg/kg oral for two weeks,65.1 % of Vehicle
same,"TC-HDL ([total cholesterol value]-[HDL-cholesterol value]), % of Vehicle",hamsters; 30 mg/kg oral for two weeks,61.6 % of Vehicle
same,blood-pressure change,"[1]; 30 mg/kg, after 3 hrs.",−13 [after 3 hrs.] mmHg
"O=C1c2cnc3cccc(n23)CN1CCC1CCN(S(=O)(=O)C(F)(F)F)CC1 [86 (ii), 4,5-dihydro-4-[2-(1-trifluoromethane-sulfonylpiperidin-4-yl)ethan-1-yl]-3H-1,4,8b-triazaace-naphthylen-3-one]",% Inhibition of cell proliferation (3H-thymidine uptake),Hs68 cells,96.6%
"Cl.Cl.O=S(=O)(NCCCCN1Cc2cccc3ncc(n23)C1)C(F)(F)F [Example 1, 4,5-Dihydro-4-[4-(trifluoromethanesulfonamido)butan-1-yl]-3H-1,4,8b-triazaacenaphthylene.dihydrochloride]","TC (total cholesterol in blood), % of Vehicle",hamsters; 30 mg/kg oral for two weeks,64.1 % of Vehicle
same,"TC-HDL ([total cholesterol value]-[HDL-cholesterol value]), % of Vehicle",hamsters; 30 mg/kg oral for two weeks,68.9 % of Vehicle
same,Urinary albumin excretion,5/6 nephrectomized rats; [2],11.2 mg/day
same,Urinary protein excretion,5/6 nephrectomized rats; [2],114.5 mg/day
same,Urinary albumin excretion,5/6 nephrectomized rats; [3],16.9 mg/day
same,Urinary protein excretion,5/6 nephrectomized rats; [3],117.0 mg/day
same,Urinary albumin excretion,5/6 nephrectomized rats; [4],18.4 mg/day
same,Urinary protein excretion,5/6 nephrectomized rats; [4],98.2 mg/day
same,Urinary albumin excretion,5/6 nephrectomized rats; [5],13.0 mg/day
same,Urinary protein excretion,5/6 nephrectomized rats; [5],156.3 mg/day
same,Urinary albumin excretion,5/6 nephrectomized rats; [6],25.1 mg/day
same,Urinary protein excretion,5/6 nephrectomized rats; [6],102.8 mg/day
same,blood-pressure change,"[1]; 10 mg/kg, after 5 hrs.",−21 [after 5 hrs.] mmHg
same,IC50,PDGF-induced contraction,2130 nM
"Cc1nc2cccc3n2c1CN(CCCCNS(=O)(=O)C(F)(F)F)C3.Cl.Cl [Example 3, 4,5-Dihydro-2-methyl-4-[4-(trifluoromethanesulfonamido)butan-1-yl]-3H-1,4,8b-triazaacenaphthylene.dihydrochloride]","TC (total cholesterol in blood), % of Vehicle",hamsters; 10 mg/kg oral for two weeks,82.2 % of Vehicle
same,"TC-HDL ([total cholesterol value]-[HDL-cholesterol value]), % of Vehicle",hamsters; 10 mg/kg oral for two weeks,79.0 % of Vehicle
same,IC50,PDGF-induced contraction,290 nM
"Cl.O=C1c2cnc3cccc(n23)CN1CCCCNS(=O)(=O)C(F)(F)F [Example 6, 4,5-Dihydro-4-[4-(trifluoromethanesulfonamido)butan-1-yl]-3H-1,4,8b-triazaacenaphthylen-3-one.hydrochloride]","TC (total cholesterol in blood), % of Vehicle",hamsters; 10 mg/kg oral for two weeks,89.5 % of Vehicle
same,"TC-HDL ([total cholesterol value]-[HDL-cholesterol value]), % of Vehicle",hamsters; 10 mg/kg oral for two weeks,84.6 % of Vehicle
same,Urinary albumin excretion,5/6 nephrectomized rats; [7],6.8 mg/day
same,Urinary protein excretion,5/6 nephrectomized rats; [7],114.1 mg/day
same,Urinary albumin excretion,5/6 nephrectomized rats; [8],13.5 mg/day
same,Urinary protein excretion,5/6 nephrectomized rats; [8],103.0 mg/day
same,Urinary albumin excretion,5/6 nephrectomized rats; [9],17.2 mg/day
same,Urinary protein excretion,5/6 nephrectomized rats; [9],93.9 mg/day
same,Urinary albumin excretion,5/6 nephrectomized rats; [10],13.1 mg/day
same,Urinary protein excretion,5/6 nephrectomized rats; [10],167.2 mg/day
same,Urinary albumin excretion,5/6 nephrectomized rats; [11],24.8 mg/day
same,Urinary protein excretion,5/6 nephrectomized rats; [11],117.3 mg/day
same,blood-pressure change,"[1]; 10 mg/kg, after 4 hrs.",−19 [after 4 hrs.] mmHg
same,IC50,PDGF-induced contraction,1270 nM
"Cl.O=C1c2cnc3cccc(n23)CN1CCCCCNS(=O)(=O)C(F)(F)F [Example 8, 4,5-Dihydro-4-[5-(trifluoromethanesulfonamido)pentan-1-yl]-3H-1,4,8b-triazaacenaphthylen-3-one.hydrochloride]","TC (total cholesterol in blood), % of Vehicle",hamsters; 10 mg/kg oral for two weeks,81.5 % of Vehicle
same,"TC-HDL ([total cholesterol value]-[HDL-cholesterol value]), % of Vehicle",hamsters; 10 mg/kg oral for two weeks,77.1 % of Vehicle
same,IC50,PDGF-induced contraction,310 nM
"Cl.O=c1c2cccc3ncc(c(=O)n1CCCCNS(=O)(=O)C(F)(F)F)n32 [Example 11, 4,5-Dihydro-4-[4-(trifluoromethanesulfonamido)butan-1-yl]-3H-1,4,8b-triazaacenaphthylene-3,5-dione.hydrochloride]",Urinary albumin excretion,5/6 nephrectomized rats; [7],10.2 mg/day
same,Urinary protein excretion,5/6 nephrectomized rats; [7],115.1 mg/day
same,Urinary albumin excretion,5/6 nephrectomized rats; [8],19.8 mg/day
same,Urinary protein excretion,5/6 nephrectomized rats; [8],69.1 mg/day
same,Urinary albumin excretion,5/6 nephrectomized rats; [9],30.3 mg/day
same,Urinary protein excretion,5/6 nephrectomized rats; [9],62.5 mg/day
same,Urinary albumin excretion,5/6 nephrectomized rats; [10],26.0 mg/day
same,Urinary protein excretion,5/6 nephrectomized rats; [10],170.3 mg/day
same,Urinary albumin excretion,5/6 nephrectomized rats; [11],38.3 mg/day
same,Urinary protein excretion,5/6 nephrectomized rats; [11],125.4 mg/day
same,blood-pressure change,"[1]; 30 mg/kg, after 7 hrs.",−31 [after 7 hrs.] mmHg
"CC(C)(C)OC(=O)NCCCCn1c(=O)c2cccc3ncc(c1=O)n32 [Example 17, 4,5-Dihydro-4-[4-(tert-butoxycarbonylamino)butan-1-yl]-3H-1,4,8b-triazaacenaphthylene-3,5-dione]",melting point,,118 to 119 °C
Cc1ncc2ccc3n(CCCCCNS(=O)(=O)C(F)(F)F)c(=O)c1n23.Cl [Example 26],"TC (total cholesterol in blood), % of Vehicle",hamsters; 30 mg/kg oral for two weeks,74.5 % of Vehicle
same,"TC-HDL ([total cholesterol value]-[HDL-cholesterol value]), % of Vehicle",hamsters; 30 mg/kg oral for two weeks,72.1 % of Vehicle
same,blood-pressure change,"[1]; 10 mg/kg, after 7 hrs.",−22 [after 7 hrs.] mmHg
same,IC50,PDGF-induced contraction,370 nM
"Cc1ncc2ccc3n(CCCCCNS(=O)(=O)CC(F)(F)F)c(=O)c1n23.Cl [Example 27, 1,2-Dihydro-3-methyl-1-[5-[(2,2,2-trifluoro)-ethanesulfonamido]pentan-1-yl]-1,4,7b-triazacyclopent[cd]inden-2-one.hydrochloride]",blood-pressure change,"[1]; 30 mg/kg, after 7 hrs.",−17 [after 7 hrs.] mmHg
"CCS(=O)(=O)NCCCCn1c(=O)c2c(C)ncc3ccc1n32.Cl [Example 35, 1,2-Dihydro-3-methyl-1-[4-(ethanesulfonamido)butan-1-yl]-1,4,7b-triazacyclopent[cd]inden-2-one.hydrochloride]",blood-pressure change,"[1]; 30 mg/kg, after 2 hrs.",−14 [after 2 hrs.] mmHg

# Source: patent publication US20010051631A1, “Tricyclic compounds, their production and use” (priority 1994, published 2001)
